Source: patent US20070105931A1, “Methods and compositions for inhibiting the proliferation of prostate cancer cells” (Mayo Foundation for Medical Education and Research, priority 2003, published 2007)

Key:
LNCaP cells = assay: Growth response (MTS cell proliferation assay), LNCaP; type: cell-based, human; conditions: MTS assay 6 days after treatment
Protocol: (§1) Human prostate cancer cell lines LNCaP (American Type Culture Collection, Manassas, Va.) and LAPC-4 (kindly provided by Dr. Charles L. Sawyers; Zhu et al., 1999, Endocrinology, 140:5451-4) were maintained in RPMI 1640 (Mediatech, Hercules, Calif.) containing 5% FBS (Biofluids, Rockville, Md.) at 37° C. and 5% CO2. To avoid potential interference of existing steroids in FBS, the media were first replaced by serum-free RPMI 1640 for 24 h. Cells were then cultured in RPMI 1640 with 5% charcoalstripped FBS supplemented with or without 1 nM Mib (New England Nuclear, Boston, Mass.), a nomnetabolizable, synthetic androgen.
(§2) Cells were plated in 24-well plates at 2×10^4 cells/well. […] MTS assay (Promega, Madison, Wis.) was performed to determine cell proliferation 6 days after the treatment. To measure secreted PSA and hK2 levels, 400 μl of spent medium from cells treated for 6 days were collected. PSA and hK2 proteins levels were determined using specific immunoassays (Mayo Immunochemical Core Facility). These measurements were used to the calculate 50% inhibitory concentration (IC50) of each of the NSAIDs.

PSA [1] = assay: Secreted PSA protein level (immunoassay), LNCaP; type: cell-based, human; conditions: for IC50: LNCaP cells, secreted PSA in spent medium, treated 6 days
Protocol: (§3) FIG. 1 is a graph showing the effects of NSAIDs on the expression of PSA and hK2 proteins in prostate cancer cells ±1 nM Mib. […] PSA and hK2 values were normalized to growth response measured by a 3-(4,5-dimethylthiazol-2-yl)-2,5-diphenyltetrazolium bromide assay and expressed as a percentage of that group treated with Mib only. Error bars indicate the SE of four separate experiments.
as §1, §2

hK2 [2] = assay: Secreted hK2 protein level (immunoassay), LNCaP; type: cell-based, human; conditions: for IC50: LNCaP cells, secreted hK2 in spent medium, treated 6 days
Protocol: as §3, §1, §2

LAPC-4 cells = assay: Growth response (MTS cell proliferation assay), LAPC-4; type: cell-based, human; conditions: MTS assay 6 days after treatment
Protocol: as §1, §2

PSA [3] = assay: Secreted PSA protein level (immunoassay), LAPC-4; type: cell-based, human; conditions: LAPC-4 cells, secreted PSA in spent medium, treated 6 days
Protocol: as §3, §1, §2

hK2 [4] = assay: Secreted hK2 protein level (immunoassay), LAPC-4; type: cell-based, human; conditions: LAPC-4 cells, secreted hK2 in spent medium, treated 6 days
Protocol: as §3, §1, §2

STAT3 [5] = assay: Western blot of STAT3 and phosphorylated STAT3 in IL6-treated LNCaP cells; type: cell-based, human
Protocol: Experiments were then performed to determine if STAT3 is phosphorylated following exposure to IL6.
The same cells were treated with 50 μM of a potent phosphatase inhibitor, peroxovanadate (POV), to determine if the nimesulide-mediated inhibition of phosphorylation of STAT3 by IL6 was due to activation of one or more phosphatases. […] Therefore, the inhibitory effect of nimesulide on phosphorylation of STAT3 by IL6 may be caused by activation of one or more phosphatases, because the inhibitor could partially reverse the reduced phosphorylation of STAT3 by nimesulide. It was noted that POV alone had no effect on phosphorylation of STAT3 in the absence of IL6.

FKBP51 = assay: Western blot of androgen-up-regulated FKBP51 protein; type: cell-based, human; conditions: 1 nM Mib
Protocol: (§4) Cells were seeded at 1×10^5 cells/plate in 100 mm dishes. […] The cells were collected by centrifugation and washed with nimesulide for 15 or 24 h. The cells were collected by centrifugation and washed with cold PBS. Cell lysates were prepared in radioimmunoprecipitation assay buffer (PBS containing 1% NP40, 0.5% sodium deoxycholate, 0.1% SDS plus freshly added protease inhibitors, 100 μg/ml phenylmethylsulfonyl fluoride, 30 μl/ml aprotinin, and 1 mM sodium orthovanadate) and used for Western blot analysis. The sample filters were immunoblotted with c-Jun, phospho-c-Jun (Cell Signaling, Beverly, Mass.), AR (PharMingen, San Diego, Calif.), and FKBP51 (a gift from Dr. D. O. Toft; Mayo Clinic) specific primary antibodies and horseradish peroxidase-conjugated secondary antibodies and visualized by enhanced chemiluminescence (Amersham Pharmacia, Piscataway, N.J.).

AR = assay: Western blot of AR protein expression; type: cell-based, human; conditions: concentrations used in the transfections
Protocol: as §4

c-Jun = assay: Western blot of c-Jun protein in LNCaP cells; type: cell-based, human; conditions: 24 h of treatment
Protocol: as §4

androgen receptor = assay: IL6-activated hK2 ARE-SV40-pGL3 reporter, transient transfection; type: cell-based, human; conditions: celecoxib 50 μM, nimesulide 100 μM; IL6 50 ng/ml; androgen 1 nM
Protocol: Experiments were performed to determine whether or not IL6 increased expression of PSA and/or hK2.

[6] = system: AR/ARE (hK2 3xARE-SV40 minimal promoter); assay: hK2 3xARE luciferase reporter assay in LNCaP cells; conditions: P<0.05, 24 h
AR promoter (−1380/+577) = assay: AR promoter-luciferase reporter assay in LNCaP cells; conditions: 1 nM Mib, 24 h, FIG. 3A
6-kb PSA promoter = assay: PSA promoter-luciferase reporter assay in LNCaP cells; conditions: concentration as low as 25 μM, 1 nM Mib, 24 h
STAT3 [7] = assay: STAT3 responsive element luciferase reporter in LNCaP cells; conditions: celecoxib 50 μM, nimesulide 100 μM, IL6 25-50 ng/ml, six hours
[8] = FIG. 1, dose-dependent, LNCaP and LAPC-4 cells, 1 nM Mib

Compound: CC(C(=O)O)c1cccc(Oc2ccccc2)c1 (centres unmarked) [Fenoprofen]
- IC50 (LNCaP cells; Homo sapiens, 144 h): > 300 µM
- IC50 (PSA [1]; Homo sapiens, 144 h): 210 µM
- IC50 (hK2 [2]; Homo sapiens, 144 h): 229 µM

Compound: CC(C)Cc1ccc(C(C)C(=O)O)cc1 (centres unmarked) [Ibuprofen]
- IC50 (LNCaP cells; Homo sapiens, 144 h): > 1000 µM
- IC50 (PSA [1]; Homo sapiens, 144 h): 783 µM
- IC50 (hK2 [2]; Homo sapiens, 144 h): 860 µM
- IC50 (LAPC-4 cells; Homo sapiens, LAPC4, 144 h): 740 µM
- IC50 (PSA [3]; Homo sapiens, LAPC4, 144 h): 870 µM
- IC50 (hK2 [4]; Homo sapiens, 144 h): 803 µM

Compound: CC1=C(CC(=O)O)c2cc(F)ccc2/C1=C\c1ccc([S+](C)[O-])cc1 (centres unmarked) [Sulindac]
- IC50 (LNCaP cells; Homo sapiens, 144 h): > 300 µM
- IC50 (PSA [1]; Homo sapiens, 144 h): > 300 µM
- IC50 (hK2 [2]; Homo sapiens, 144 h): > 300 µM
- IC50 (LAPC-4 cells; Homo sapiens, LAPC4, 144 h): > 300 µM
- IC50 (PSA [3]; Homo sapiens, LAPC4, 144 h): > 300 µM
- IC50 (hK2 [4]; Homo sapiens, 144 h): > 300 µM

Compound: CC(C(=O)O)c1ccc(-c2ccccc2)c(F)c1 (centres unmarked) [Flurbiprofen]
- IC50 (LNCaP cells; Homo sapiens, 144 h): > 300 µM
- IC50 (PSA [1]; Homo sapiens, 144 h): 206 µM
- IC50 (hK2 [2]; Homo sapiens, 144 h): 281 µM
- IC50 (LAPC-4 cells; Homo sapiens, LAPC4, 144 h): 347 µM
- IC50 (PSA [3]; Homo sapiens, LAPC4, 144 h): 234 µM
- IC50 (hK2 [4]; Homo sapiens, 144 h): 221 µM

Compound: COc1ccc2c(c1)c(CC(=O)O)c(C)n2C(=O)c1ccc(Cl)cc1 [Indomethacin]
- IC50 (LNCaP cells; Homo sapiens, 144 h): > 300 µM
- IC50 (PSA [1]; Homo sapiens, 144 h): 224 µM
- IC50 (hK2 [2]; Homo sapiens, 144 h): 272 µM
- IC50 (LAPC-4 cells; Homo sapiens, LAPC4, 144 h): 170 µM
- IC50 (PSA [3]; Homo sapiens, LAPC4, 144 h): 203 µM
- IC50 (hK2 [4]; Homo sapiens, 144 h): 207 µM

Compound: CC(C(=O)O)c1cccc(C(=O)c2ccccc2)c1 (centres unmarked) [Ketoprofen]
- IC50 (LNCaP cells; Homo sapiens, 144 h): > 300 µM
- IC50 (PSA [1]; Homo sapiens, 144 h): > 300 µM
- IC50 (hK2 [2]; Homo sapiens, 144 h): > 300 µM
- IC50 (LAPC-4 cells; Homo sapiens, LAPC4, 144 h): > 300 µM
- IC50 (PSA [3]; Homo sapiens, LAPC4, 144 h): > 300 µM
- IC50 (hK2 [4]; Homo sapiens, 144 h): > 300 µM

Compound: peroxovanadate [POV]
- phosphorylation of STAT3 in the absence of IL6 (STAT3 [5]; 50 μM POV alone): no effect

Compound: CS(=O)(=O)Nc1ccc([N+](=O)[O-])cc1Oc1ccccc1 [Nimesulide]
- IC50 (LNCaP cells; Homo sapiens, 144 h): 38.2 µM
- expression of PSA (PSA [1]; [8]): suppressed
- IC50 (PSA [1]; Homo sapiens, 144 h): 27 µM
- expression of hK2 (hK2 [2]; [8]): suppressed
- IC50 (hK2 [2]; Homo sapiens, 144 h): 23 µM
- IC50 (LAPC-4 cells; Homo sapiens, LAPC4, 144 h): 104 µM
- IC50 (PSA [3]; Homo sapiens, LAPC4, 144 h): 76.5 µM
- IC50 (hK2 [4]; Homo sapiens, 144 h): 61 µM
- androgen-up-regulated FKBP51 protein expression (FKBP51): alleviated
- AR protein expression (AR): reduced
- c-Jun protein (c-Jun): strongly induced
- androgen receptor-mediated expression of the reporter gene activated by IL6 or IL6 plus androgen (androgen receptor): inhibit
- phosphorylation of STAT3 by IL6 (STAT3 [5]; celecoxib 50 μM, nimesulide 100 μM, IL6 25-50 ng/ml): significantly suppressed
- AR/ARE-mediated gene expression (hK2 3xARE reporter) [6]: significantly reduced
- transcription activities of the AR promoter (−1380/+577) (AR promoter (−1380/+577)): repressed
- androgen-induced PSA promoter activity (6-kb PSA promoter): significantly reduced
- STAT3-specific responsive element-mediated luciferase expression activated by IL6 (STAT3 [7]): inhibited

Compound: CC(=O)Oc1ccccc1C(=O)O [Aspirin]
- IC50 (LNCaP cells; Homo sapiens, 144 h): > 1000 µM
- IC50 (PSA [1]; Homo sapiens, 144 h): > 1000 µM
- IC50 (hK2 [2]; Homo sapiens, 144 h): > 1000 µM
- IC50 (LAPC-4 cells; Homo sapiens, LAPC4, 144 h): > 1000 µM
- IC50 (PSA [3]; Homo sapiens, LAPC4, 144 h): > 1000 µM
- IC50 (hK2 [4]; Homo sapiens, 144 h): > 1000 µM

Compound: Cc1ccc(-c2cc(C(F)(F)F)nn2-c2ccc(S(N)(=O)=O)cc2)cc1 [Celecoxib]
- IC50 (PSA [1]; Homo sapiens, 144 h): 20 µM
- IC50 (hK2 [2]; Homo sapiens, 144 h): 29.6 µM
- IC50 (LAPC-4 cells; Homo sapiens, LAPC4, 144 h): 44.5 µM
- IC50 (PSA [3]; Homo sapiens, LAPC4, 144 h): 28.7 µM
- IC50 (hK2 [4]; Homo sapiens, 144 h): 43.7 µM

Compound: CC1=C(CC(=O)O)c2cc(F)ccc2/C1=C\c1ccc(S(C)(=O)=O)cc1 [Sulindac sulfone]
- IC50 (LNCaP cells): > 300 µM
- IC50 (PSA [1]): 206 µM
- IC50 (hK2 [2]): 97.6 µM
- IC50 (LAPC-4 cells): 253 µM
- IC50 (PSA [3]): 194 µM
- IC50 (hK2 [4]): > 300 µM

Compound: Cc1cnc(NC(=O)C2=C(O)c3ccccc3S(=O)(=O)N2C)s1 [Meloxicam]
- IC50 (LNCaP cells; Homo sapiens, 144 h): 193 µM
- IC50 (PSA [1]; Homo sapiens, 144 h): 300 µM
- IC50 (hK2 [2]; Homo sapiens, 144 h): 377 µM
- IC50 (LAPC-4 cells; Homo sapiens, LAPC4, 144 h): 92 µM
- IC50 (PSA [3]; Homo sapiens, LAPC4, 144 h): > 300 µM
- IC50 (hK2 [4]; Homo sapiens, 144 h): > 300 µM
